Results reported in patent US7244727B2, “Fused bicyclic nitrogen-containing heterocycles” (Japan Tobacco Inc., priority 2002, dated 2007).

Tests used:
human DGAT1 = molecular target: T1, human DGAT1 (Homo sapiens, UniProt O75907); experiment: DGAT Scintillation Proximity Assay (SPA) with membranes of insect cells expressing human flagtag DGAT1; format: biochemical; conditions: read-out: hDGAT1 IC50
T1 construct: made in house; host or cells: insect cells (sf9, sf21 or High Five) infected with baculovirus; total cell membranes
T1 sequence (O75907 1-488): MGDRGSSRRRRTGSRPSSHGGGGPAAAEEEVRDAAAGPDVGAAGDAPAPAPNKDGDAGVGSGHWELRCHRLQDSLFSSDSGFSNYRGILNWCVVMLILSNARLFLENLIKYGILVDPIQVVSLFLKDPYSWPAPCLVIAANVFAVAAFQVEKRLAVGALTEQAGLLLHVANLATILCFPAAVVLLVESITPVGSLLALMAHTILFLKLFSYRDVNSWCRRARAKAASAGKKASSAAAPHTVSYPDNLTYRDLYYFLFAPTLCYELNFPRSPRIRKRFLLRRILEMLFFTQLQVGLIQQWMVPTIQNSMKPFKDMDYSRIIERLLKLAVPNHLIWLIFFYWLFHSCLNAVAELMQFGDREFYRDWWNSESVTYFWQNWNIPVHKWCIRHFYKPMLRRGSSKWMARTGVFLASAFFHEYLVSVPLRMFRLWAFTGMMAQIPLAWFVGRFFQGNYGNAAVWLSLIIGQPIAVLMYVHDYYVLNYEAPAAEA
How it was run: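 Membranes (0.2 μg/well) from insect cells expressing human flag-tagged DGAT1 incubated with 10 μM compound and 200 μM dioleoyl glycerol substrate; mercuric chloride as inhibition control. Reaction stopped with WGA SPA beads in mercuric chloride, overnight bead coupling, then scintillation proximity signal read.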

| SMILES | melting point | IC50 (human DGAT1) [nM] |
| --- | --- | --- |
| CC1(C)Oc2nc(C(F)(F)F)nc(N)c2N=C1c1ccc([C@H]2CC[C@H](CNC(=O)CO)CC2)c(Cl)c1 [Example 6-24] | 213 to 216 °C | 10 to 100 |
| CCOC(=O)C1CCN(c2ccc(C3=Nc4c(N)ncnc4OC3(C)C)cc2)CC1 [Example 4-3] | 176 to 177 °C | > 100 |
| CC1(C)Oc2ncnc(N)c2N=C1c1ccc([C@H]2CC[C@H](Cn3ccnc3)CC2)cc1 [Example 2-108] | 202 to 203 °C | 10 to 100 |
| CC1(C)Oc2ncnc(N)c2N=C1c1ccc([C@H]2CC[C@H](Cc3nc4cc(F)ccc4[nH]3)CC2)cc1 [Example 2-124] | > 230 °C | 10 to 100 |
| Nc1ncnc2c1N=C(c1ccc([N+](=O)[O-])cc1)CO2 [Example 1-13] | > 250 °C | > 100 |
| CC1(C)Oc2ncnc(N)c2N=C1c1ccc([C@H]2CC[C@H](CCN3CCC(O)(c4ccccc4)CC3)CC2)cc1 [Example 2-85] | 115 to 116 °C | > 100 |
| Cc1nc(N)c2c(n1)OC(C)(C)C(c1ccc([C@H]3CC[C@H](C(=O)N4C[C@@H](O)[C@@H](O)C4)CC3)cc1)=N2 [Example 2-258] | > 250 °C | 10 to 100 |
| Cc1ccc(S(=O)(=O)NC[C@H]2CC[C@H](c3ccc(C4=Nc5c(N)ncnc5OC4(C)C)cc3)CC2)cc1 [Example 2-129] | 206 to 207 °C | 10 to 100 |
| Nc1ncnc2c1N=C(c1ccc(OC(F)(F)F)cc1)CO2 [Example 1-23] | 209 to 212 °C | > 100 |
| Cc1nc(N)c2c(n1)OC(C)(C)C(c1ccc([C@H]3CC[C@H](Cc4nc(=O)o[nH]4)CC3)cc1)=N2 [Example 2-151] | > 250 °C | < 10 |
| CC1(C)Oc2ncnc(N)c2N=C1c1ccc([C@H]2CC[C@H](CN3CCCC3)CC2)cc1 [Example 2-229] | 160 to 162 °C | > 100 |
| Cc1csc(NCC[C@H]2CC[C@H](c3ccc(C4=Nc5c(N)ncnc5OC4(C)C)cc3)CC2)n1 [Example 2-184] | > 250 °C | 10 to 100 |
| Nc1ncnc2c1NC(c1ccc(Cl)c(Cl)c1)CO2 (centres unmarked) [Example 1-36] | 198 to 200 °C | > 100 |
| Cc1nc(N)c2c(n1)OC(C)(C)C(c1ccc([C@H]3CC[C@H](CC(=O)N(C)CC(N)=O)CC3)cc1)=N2 [Example 2-144] | > 230 °C | 10 to 100 |
| Cc1nc(N)c2c(n1)OC(C)(C)C(c1ccc([C@H]3CC[C@H](CNC(=O)N4CCOCC4)CC3)c(Cl)c1)=N2 [Example 6-15] | 225 to 228 °C | 10 to 100 |
| Cc1ccc(S(=O)(=O)NCC[C@H]2CC[C@H](c3ccc(C4=Nc5c(N)ncnc5OC4(C)C)cc3)CC2)cc1 [Example 2-175] | 230 to 231 °C | 10 to 100 |
| CC1(C)Oc2ncnc(N)c2N=C1c1ccc([C@H]2CC[C@H](CN3CCN(S(C)(=O)=O)CC3)CC2)cc1 [Example 2-240] | 233 to 235 °C | 10 to 100 |
| CC1(C)Oc2nc(C(F)(F)F)nc(N)c2N=C1c1ccc([C@H]2CC[C@H](CC(=O)O)CC2)c(Cl)c1 [Example 6-20] | 247 to 248 °C | < 10 |

| SMILES | melting point | IC50 (human DGAT1) [nM] |
| --- | --- | --- |
| CCOC(=O)N1CCC(NC[C@H]2CC[C@H](c3ccc(C4=Nc5c(N)ncnc5OC4(C)C)cc3)CC2)CC1 [Example 2-115] | 127 to 135 °C | > 100 |
| Cc1nc(N)c2c(n1)OC(C)(C)C(c1ccc(C3CCCCC3)cc1)=N2 [Example 2-26] | 226 to 227 °C | 10 to 100 |
| Nc1ncnc2c1NC(c1ccc(Cl)cc1Cl)CO2 (centres unmarked) [Example 1-37] | > 220 °C | > 100 |
| Nc1ncnc2c1N=C(c1cccc(Br)c1)CO2 [Example 1-7] | > 220 °C | > 100 |
| CC1(C)Oc2ncnc(N)c2N=C1c1ccc2c(c1)CC(C(=O)O)C2 (centres unmarked) [Example 2-71] | > 250 °C | > 100 |
| CC1(C)Oc2ncnc(N)c2N=C1c1ccc([C@H]2CC[C@H](Cc3cnc(C(C)(C)C)[nH]3)CC2)cc1 [Example 2-119] | > 250 °C | 10 to 100 |
| CC1(C)Oc2ncnc(N)c2N=C1c1ccc([C@H]2CC[C@H](Cc3nc4cc(Cl)ccc4[nH]3)CC2)cc1 [Example 2-122] | > 230 °C | 10 to 100 |
| Cc1nc(N)c2c(n1)OC(C)(C)C(c1ccc([C@H]3CC[C@H](CNC(=O)N(C)C)CC3)c(Cl)c1)=N2 [Example 6-16] | > 250 °C | > 100 |
| Cc1nc(N)c2c(n1)OC(C)(C)C(c1ccc([C@H]3CC[C@H](Cc4cc(O)n(C)n4)CC3)cc1)=N2 [Example 2-165] | > 250 °C | 10 to 100 |
| CC1(C)Oc2nc(C(F)(F)F)nc(N)c2N=C1c1ccc([C@H]2CC[C@H](CN3CCOC3=O)CC2)c(Cl)c1 [Example 6-21] | > 250 °C | 10 to 100 |
| Cc1nc(N)c2c(n1)OC(C)(C)C(c1ccc([C@H]3CC[C@H](CC(C)(C)C(=O)O)CC3)cc1)=N2 [Example 2-202] | > 225 °C | 10 to 100 |
| CC1(C)Oc2ncnc(N)c2N=C1c1ccc(-c2ccncc2)cc1 [Example 2-28] | > 250 °C | > 100 |
| Nc1ncnc2c1N=C(c1ccc(Cl)cc1Cl)CO2 [Example 1-28] | 218 to 220 °C | > 100 |
| CC1(C)Oc2ncnc(N)c2N=C1c1ccc([C@H]2CC[C@H](CCC(=O)N3CCC[C@H]3CO)CC2)cc1 [Example 2-178] | 143 to 160 °C | 10 to 100 |
| Cc1nc(N)c2c(n1)OC(C)(C)C(c1ccc([C@H]3CC[C@H](CNC(=O)CO)CC3)c(F)c1)=N2 [Example 6-10] | 212 to 214 °C | 10 to 100 |
| Cc1nc(N)c2c(n1)OC(C)(C)C(c1ccc([C@H]3CC[C@H](CNC(N)=O)CC3)cc1)=N2 [Example 2-161] | 219 to 221 °C | 10 to 100 |
| CC1(C)Oc2nc(C(F)(F)F)nc(N)c2N=C1c1ccc([C@H]2CC[C@H](CNC(N)=O)CC2)c(Cl)c1 [Example 6-22] | 147 °C (dec.) | 10 to 100 |

Continued, values first:

| melting point | IC50 (human DGAT1) [nM] | SMILES |
| --- | --- | --- |
| > 250 °C | 10 to 100 | CC1(C)Oc2ncnc(N)c2N=C1c1ccc([C@H]2CC[C@H](Cc3cc(O)[nH]n3)CC2)cc1 [Example 2-59] |
| 137 to 139 °C | 10 to 100 | CC1(C)Oc2ncnc(N)c2N=C1c1ccc([C@H]2CC[C@H](CC(=O)N3CCC(O)CC3)CC2)cc1 [Example 2-77] |
| > 250 °C | 10 to 100 | Cc1nc(N)c2c(n1)OC(C)(C)C(c1ccc([C@H]3CC[C@H](C(=O)O)CC3)cc1)=N2 [Example 2-255] |
| 173 to 175 °C | 10 to 100 | CC1(C)Oc2ncnc(N)c2N=C1c1ccc([C@H]2CC[C@H](Cc3cc(O)on3)CC2)cc1 [Example 2-60] |
| 173 to 175 °C | 10 to 100 | CCN(C)C(=O)CC[C@H]1CC[C@H](c2ccc(C3=Nc4c(N)ncnc4OC3(C)C)cc2)CC1 [Example 2-188] |
| > 250 °C | 10 to 100 | CC(NC(=O)[C@H]1CC[C@H](c2ccc(C3=Nc4c(N)ncnc4OC3(C)C)cc2)CC1)C(=O)O (some centres unmarked) [Example 2-211] |
| > 230 °C | 10 to 100 | CC1(C)Oc2ncnc(N)c2N=C1c1ccc([C@H]2CC[C@H](CC3SC(=O)NC3=O)CC2)cc1 (some centres unmarked) [Example 2-64] |
| 190 to 191 °C | > 100 | CN1CCN(C(=O)[C@H]2CC[C@H](c3ccc(C4=Nc5c(N)ncnc5OC4(C)C)cc3)CC2)CC1 [Example 2-238] |
| 168 to 170 °C | 10 to 100 | CN(CCO)C(=O)CC[C@H]1CC[C@H](c2ccc(C3=Nc4c(N)ncnc4OC3(C)C)cc2)CC1 [Example 2-179] |
| > 250 °C | 10 to 100 | CC1(C)Oc2ncnc(N)c2N=C1c1ccc([C@H]2CC[C@H](C(=O)N3CCC(C(=O)O)CC3)CC2)cc1 [Example 2-207] |
| 201 to 209 °C | > 100 | CC1CCC(c2ccc(C3=Nc4c(N)ncnc4OC3(C)C)cc2)CC1 (centres unmarked) [Example 2-41] |
| > 250 °C | 10 to 100 | CC1(C)Oc2ncnc(N)c2N=C1c1ccc([C@H]2CC[C@H](NS(C)(=O)=O)CC2)cc1 [Example 2-210] |
| > 250 °C | < 10 | CN(CC(=O)O)C(=O)[C@H]1CC[C@H](c2ccc(C3=Nc4c(N)ncnc4OC3(C)C)cc2)CC1 [Example 2-214] |
| 155 to 156 °C | 10 to 100 | CC1(C)Oc2ncnc(N)c2N=C1c1ccc([C@H]2CC[C@H](CC(=O)CO)CC2)cc1 [Example 2-110] |
| 198 to 200 °C | 10 to 100 | CCCNC(=O)CC[C@H]1CC[C@H](c2ccc(C3=Nc4c(N)ncnc4OC3(C)C)cc2)CC1 [Example 2-177] |
| 237 to 239 °C | 10 to 100 | CC1(C)Oc2ncnc(N)c2N=C1c1ccc([C@H]2CC[C@H](CC(=O)N3CCC(O)C3)CC2)cc1 (some centres unmarked) [Example 2-101] |
| > 250 °C | < 10 | CC1(C)Oc2ncnc(N)c2N=C1c1ccc(C2CCC(=CC(=O)O)CC2)cc1 (centres unmarked) [Example 2-40] |
